The subject of assay [1] is expanded cord blood CD34+ cells, lymphoid progenitors. As to the kind of experiment: Lymphoid Progenitor Differentiation Culture after Expansion Culture (Example 41). The following applies: for Fold Enhancement (vs. unexpanded) of CD10+ lineage output: 14 days Lymphoid Differentiation Culture. In kind it is cell-based, human. From the text:
Lymphoid Progenitor Differentiation Cultures (L Diff Cultures) were initiated prior to culture in +Formula I (Day 1 L Diff Culture), following 14 days of culture in +Formula I (14-day +Formula I-expanded L Diff Culture), following 14 days of culture in control conditions (14-day DMSO-expanded L Diff Culture) or following 21 days of culture in +Formula I (21-day +Formula I-expanded L Diff Culture).
12-well non-TC-treated plates were coated with StemSpan Lymphoid Differentiation Coating Material (STEMCELL Technologies) by incubation for two hours at room temperature. Immediately prior to initiation of L Diff Culture, wells were washed with PBS.
Purified CD34+ cells were plated at 20,000 cells per well, in Lymphoid Progenitor Expansion Medium (“LPEM”), comprising StemSpan SFEM II medium (STEMCELL Technologies) with StemSpan Lymphoid Progenitor Expansion Supplement (STEMCELL Technologies). Cells were plated in duplicate, in 500 μl/well, then placed in a humidified incubator at atmospheric oxygen and 5% CO2. Exact cell numbers dispensed per well were quantified with flow cytometry for later calculations.
On days three or five, an additional 500 μl/well of LPEM was added, then on days seven and eleven, half of the media was removed and replaced with fresh LPEM.
At seven and fourteen days, cells were analyzed via flow cytometry to quantify lymphoid lineage phenotypes of CD7+/CD5−, CD5+/CD7− and CD7+/CD5+, as well as presence of maturing B cells (CD19+), T cells (CD3+) or NK cells (CD56+).
“Per-Assayed-CD34+ Cell Output” describes the output of differentiated cells per CD34+ cell placed into Differentiation Culture, and is calculated by dividing the Corrected Count of lineage-positive cells by the number of CD34+ cells placed into quantified at Differentiation Culture initiation following 1, 14, 28, 42 or 64 days in Expansion Culture.
“Scaled Output” (or Scaled Output per CD34+ cell) describes the number of differentiated cells of a given lineage that may be produced from a single CD34+ cell following both Expansion Cell Culture (if expanded) followed by Differentiation Culture. This quantity is calculated by multiplying Per-Assayed-CD34+ Cell Output by the Fold Expansion of CD34+ cells from day 1 to the day of Differentiation Culture initiation (day 14, 28, 42 or 64). This quantity is synonymous with “per-expanded-dl-CD34+ cell output” used in Example 38 above.
“Fold Enhancement (vs. unexpanded)” was calculated to fully capture the benefit of Expansion Culture in +Formula I Conditions prior to Differentiation Culture. This quantity was calculated by dividing the Scaled Output output of a given cell population by the Per-Assayed-CD34+ Cell Output of that population from unexpanded cells placed into differentiation culture, as in the equation below. Each fold increase was calculated relative to the same number of days in differentiation culture, e.g. the fold increase of cells differentiated for six days was calculated by dividing the scaled output of expanded cells differentiated for six days by the output of unexpanded cells differentiated for six days. In the case of cells differentiated for 14 days, an exact match in unexpanded cells was not available, so output at differentiation day 13 was used as a denominator.

The subject of assay [2] is CD34+ cells from cord blood. The assay can be described thus: HSC Expansion Culture, 21 and 63 days (Example 38). The class given is cell-based, human. Conditions: +Formula I Condition (Compound 1.010 8 μM). The method, then: CD34+ cells from cord blood were purchased from STEMCELL Technologies. Primary human CD34+ cells were isolated by the supplier from cord blood samples using positive immunomagnetic separation techniques. Cells were thawed, gradually brought to room temperature, then washed.
Cells were placed in overnight culture in StemSpan with 100 ng/ml each of FLT3L, TPO, SCF, and IL-6. Eighteen hours later (day 1), cells were counted and immunophenotyped (flow cytometry on an Invitrogen Attune N×T cytometer).
A portion of these cells were washed and placed directly into various “Differentiation Cultures,” described below. The remainder of cells were placed into “HSC Expansion Culture,” described here. Approximately 1000 live cells were plated into duplicate 25 cm^2 flasks; exact cell numbers dispensed per flask were quantified with flow cytometry for later calculations. […]
Following 21 and 63 days in Expansion Culture, prior to passaging or CD34 re-enrichment, a sample was taken from each flask for analysis of phenotypes (flow cytometry on an Invitrogen Attune N×T cytometer). Cell numbers calculated for these analyses take into account passaging of cells on prior days. Fold expansion of CD34+ cells was calculated by dividing the cell numbers at later days (21 and 63) by the number of CD34+ cells quantified at day 1.

Setting [3] is: 14 days in +Formula I Expansion Culture.
Setting [4] is: 21 days in +Formula I Expansion Culture.

As to `CC(C)(C)C(=O)Nc1ccc2c(c1)C(O)c1ccccc1-2` (stereo not shown) [Compound 1.010], in assay [1] (setting [3]), the “Fold Enhancement (vs. unexpanded) of CD7+/CD5+ lineage output” value was found to be 5.8 fold, the “Fold Enhancement (vs. unexpanded) of CD7+/CD5− lineage output” value turned out to be 6.3 fold, the “Fold Enhancement (vs. unexpanded) of CD7−/CD5+ lineage output” value is 11 fold and the “Fold Enhancement (vs. unexpanded) of CD10+ lineage output” value is recorded as 5 fold. Also, in assay [1] (setting [4]), the “Fold Enhancement (vs. unexpanded) of CD7+/CD5+ lineage output” value came to 238 fold, the “Fold Enhancement (vs. unexpanded) of CD7+/CD5− lineage output” value amounted to 46 fold, the “Fold Enhancement (vs. unexpanded) of CD7−/CD5+ lineage output” value was 180 fold and the “Fold Enhancement (vs. unexpanded) of CD10+ lineage output” value is reported as 37 fold. The “fold expansion of CD34+ cells” value in assay [2] (21 days) was 600 fold. In assay [2] (63 days), the “fold expansion of CD34+ cells” value is recorded as 244,000 fold.

These data come from patent publication US20220315895A1, “METHODS OF MAKING OLIGOPOTENT AND UNIPOTENT PRECURSORS” (Transfusion Health, LLC, priority 2019, published 2022).
